Test results published in the supplement of paper PMC11061612.

What was measured:
Assay in all cases: Bliss excess, mean over the matrix (fraction); higher = more synergy
NCI-H2052 (Mesothelioma) = system: NCI-H2052 (Mesothelioma)
Summary of the method: (§1)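 Cell lines in DMEM/F12 or RPMI with 10% FBS were plated in 1536-well plates, held 24 hours at 37°C, 5% CO2, then given two-drug dose matrices for 72 hours (DMSO typically 0.2%). Viability was read by CellTiter-Glo 2.0 luminescence and scaled as inhibition from 0 (vehicle wells) to 1 (blank wells). Combination Emax is the second-highest inhibition in the matrix; Bliss excess is observed combination effect minus expected EA + EB − EA·EB, EA and EB being single-agent effects.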

NCI-H2722 (Mesothelioma) = system: NCI-H2722 (Mesothelioma)
Summary of the method: as §1

[1] = system: MHH-CALL-2 (B-Lymphoblastic Leukemia)
Summary of the method: as §1

[2] = system: KYAE-1 (Esophageal Adenocarcinoma)
Summary of the method: as §1

KS-1 (Glioblastoma) = system: KS-1 (Glioblastoma)
Summary of the method: as §1

[3] = system: BE-13 (T-Lymphoblastic Leukemia)
Summary of the method: as §1

[4] = system: OV-56 (Ovarian Carcinoma)
Summary of the method: as §1

[5] = system: WSU-NHL (B-Cell Non-Hodgkin's Lymphoma)
Summary of the method: as §1

[6] = system: CAL-33 (Oral Cavity Carcinoma)
Summary of the method: as §1

[7] = system: NUGC-4 (Gastric Carcinoma)
Summary of the method: as §1

GAMG (Glioblastoma) = system: GAMG (Glioblastoma)
Summary of the method: as §1

[8] = system: NCI-H1568 (Lung Adenocarcinoma)
Summary of the method: as §1

[9] = system: SW1710 (Bladder Carcinoma)
Summary of the method: as §1

[10] = system: Hs-746T (Gastric Carcinoma)
Summary of the method: as §1

A673 (Ewing's Sarcoma) = system: A673 (Ewing's Sarcoma)
Summary of the method: as §1

[11] = system: YAPC (Pancreatic Carcinoma)
Summary of the method: as §1

[12] = system: OE21 (Esophageal Squamous Cell Carcinoma)
Summary of the method: as §1

[13] = system: SNU-449 (Hepatocellular Carcinoma)
Summary of the method: as §1

[14] = system: LNZTA3WT4 (Low Grade Glioma)
Summary of the method: as §1

[15] = system: FTC-133 (Thyroid Gland Carcinoma)
Summary of the method: as §1

| SMILES | Bliss excess (NCI-H2052 (Mesothelioma)) | Bliss excess (NCI-H2722 (Mesothelioma)) | Bliss excess [1] | Bliss excess [2] | Bliss excess (KS-1 (Glioblastoma)) | Bliss excess [3] | Bliss excess [4] | Bliss excess [5] | Bliss excess [6] | Bliss excess [7] | Bliss excess (GAMG (Glioblastoma)) | Bliss excess [8] | Bliss excess [9] | Bliss excess [10] | Bliss excess (A673 (Ewing's Sarcoma)) | Bliss excess [11] | Bliss excess [12] | Bliss excess [13] | Bliss excess [14] | Bliss excess [15] |
| --- | --- | --- | --- | --- | --- | --- | --- | --- | --- | --- | --- | --- | --- | --- | --- | --- | --- | --- | --- | --- |
| CN(C)CCCOc1ccc(-c2ccc3ncc4c(c3c2)n(C2CCOCC2)c(=O)n4C)cn1 [AZD0156] + O=C(c1cc(Cc2n[nH]c(=O)c3ccccc23)ccc1F)N1CCN(C(=O)C2CC2)CC1 [Olaparib] (first compound max 3 µM, partner max 3 µM) | -0.0064 | -0.017 | 0.106 | 0.0247 | 0.0259 | 0.0894 | -0.0449 | 0.403 | 0.0741 | -0.0473 | 0.0515 | 0.0101 | -0.0233 | 0.0802 | 0.16 | 0.0131 | -0.0006 | -0.0344 | -0.0184 |  |
| C=CCn1c(=O)c2cnc(Nc3ccc(N4CCN(C)CC4)cc3)nc2n1-c1cccc(C(C)(C)O)n1 [AZD1775] + C1CN(CCC1(C(=O)N[C@@H](CCO)C2=CC=C(C=C2)Cl)N)C3=NC=NC4=C3C=CN4 [Capivasertib] (first compound max 3 µM, partner max 3 µM) | -0.0369 | -0.0603 | 0.029 | -0.0284 | -0.0126 | -0.0508 | -0.0263 | -0.0271 | 0.066 | -0.14 | 0.0181 | -0.0572 | 0.0334 | 0.031 | 0.018 | -0.0097 | -0.0253 | 0.0122 | -0.0111 |  |
| CN(CCO)CC[C@H](CSc1ccccc1)Nc1ccc(S(=O)(=O)NC(=O)c2ccc(N3CCC([C@@H](O)c4ccccc4-c4ccc(Cl)cc4)CC3)cc2)cc1S(=O)(=O)C(F)(F)F [AZD4320] + C1CN(CCC1(C(=O)N[C@@H](CCO)C2=CC=C(C=C2)Cl)N)C3=NC=NC4=C3C=CN4 [Capivasertib] (first compound max 1 µM, 7x7, partner max 3 µM) | -0.0743 | -0.081 | -0.0126 | -0.031 | -0.0435 | -0.0175 | -0.0243 | -0.0413 | -0.0424 | -0.0706 | -0.0661 | -0.0518 | -0.034 | 0.0094 | 0.0099 | -0.0415 | 0.0073 | -0.0742 | -0.0176 | -0.0459 |
| CN(CCO)CC[C@H](CSc1ccccc1)Nc1ccc(S(=O)(=O)NC(=O)c2ccc(N3CCC([C@@H](O)c4ccccc4-c4ccc(Cl)cc4)CC3)cc2)cc1S(=O)(=O)C(F)(F)F [AZD4320] + C=CCn1c(=O)c2cnc(Nc3ccc(N4CCN(C)CC4)cc3)nc2n1-c1cccc(C(C)(C)O)n1 [AZD1775] (first compound max 1 µM, partner max 1 µM) | 0.0004 | 0.042 | 0.14 | 0.032 | 0.0327 | 0.046 | -0.0113 | -0.0242 | -0.0266 | -0.0217 | 0.0041 | 0.0492 | -0.0047 | -0.0054 | 0.082 | -0.0482 |  | -0.0744 | -0.0201 | 0.0341 |
| CN(CCO)CC[C@H](CSc1ccccc1)Nc1ccc(S(=O)(=O)NC(=O)c2ccc(N3CCC([C@@H](O)c4ccccc4-c4ccc(Cl)cc4)CC3)cc2)cc1S(=O)(=O)C(F)(F)F [AZD4320] + CN(C)CCCOc1ccc(-c2ccc3ncc4c(c3c2)n(C2CCOCC2)c(=O)n4C)cn1 [AZD0156] (first compound max 1 µM, 7x7, partner max 1 µM) | -0.0383 | -0.0276 | 0.106 | -0.0114 | -0.0136 | -0.0325 | -0.015 | -0.0238 | 0.007 | -0.0513 | -0.0237 | -0.0099 | -0.0302 | 0.0037 | 0.0419 | -0.028 | -0.0207 | -0.0828 | -0.0259 | 0.0392 |
| CN(CCO)CC[C@H](CSc1ccccc1)Nc1ccc(S(=O)(=O)NC(=O)c2ccc(N3CCC([C@@H](O)c4ccccc4-c4ccc(Cl)cc4)CC3)cc2)cc1S(=O)(=O)C(F)(F)F [AZD4320] + Cn1cnc2c(F)c(Nc3ccc(Br)cc3Cl)c(C(=O)NOCCO)cc21 [Selumetinib] (first compound max 1 µM, 7x7, partner max 3 µM) | 0.0283 | -0.011 | 0.298 | -0.0146 | -0.0051 | -0.0017 | -0.0063 | -0.0491 | 0.0749 | 0.0784 | 0.0039 | -0.0035 | 0.0287 | 0.0402 | 0.0944 | 0.0082 | 0.0225 | -0.0537 | -0.0656 | -0.0023 |
| COc1nnc2ccc(N3CCC(c4ccc(OCCN5CCN(C)C(=O)[C@H]5C)cc4)CC3)nn12 [AZD5153] + C=CCn1c(=O)c2cnc(Nc3ccc(N4CCN(C)CC4)cc3)nc2n1-c1cccc(C(C)(C)O)n1 [AZD1775] (first compound max 1 µM, partner max 1 µM) | -0.0882 | 0.0139 | -0.0843 | -0.0142 | -0.0308 | -0.0879 | -0.0105 | -0.0255 | -0.0757 | -0.0478 | -0.0516 | -0.102 | -0.0582 | -0.0556 | -0.055 | -0.0403 | -0.0497 | -0.0033 | -0.0356 | -0.0099 |
| COc1nnc2ccc(N3CCC(c4ccc(OCCN5CCN(C)C(=O)[C@H]5C)cc4)CC3)nn12 [AZD5153] + CC1(C)CCC(CN2CCN(c3ccc(C(=O)NS(=O)(=O)c4ccc(NCC5CCOCC5)c([N+](=O)[O-])c4)c(Oc4cnc5[nH]ccc5c4)c3)CC2)=C(c2ccc(Cl)cc2)C1 [Venetoclax] (first compound max 1 µM, 7x7, partner max 1 µM) | -0.0748 | -0.0485 | -0.0292 | -0.0171 | -0.0763 | -0.0428 | -0.062 | 0.0355 | -0.0393 | -0.0455 | -0.01 | -0.0383 | -0.0739 | -0.119 | -0.0706 | -0.0115 | -0.0352 | -0.0308 | -0.0571 | -0.0745 |
| COc1nnc2ccc(N3CCC(c4ccc(OCCN5CCN(C)C(=O)[C@H]5C)cc4)CC3)nn12 [AZD5153] + CCN(CCO)CCCOc1ccc2c(Nc3cc(CC(=O)Nc4cccc(F)c4)[nH]n3)ncnc2c1 [AZD2811] (first compound max 1 µM, 7x7, partner max 1 µM) | -0.0479 | -0.0263 | 0.0191 | -0.0092 | -0.0317 | -0.0637 | -0.0288 | -0.0807 | -0.128 | -0.0508 | 0.0004 | -0.064 | -0.052 | -0.058 | -0.0389 | -0.0203 | -0.0315 | -0.0179 | -0.0415 | -0.0014 |
| COc1nnc2ccc(N3CCC(c4ccc(OCCN5CCN(C)C(=O)[C@H]5C)cc4)CC3)nn12 [AZD5153] + C[C@@H]1COCCN1C2=NC(=NC(=C2)C3(CC3)[S@](=N)(=O)C)C4=C5C=CNC5=NC=C4 [AZD6738] (first compound max 1 µM, 7x7, partner max 10 µM) | -0.0497 | 0.0378 | -0.0397 | -0.003 | -0.0349 | -0.0227 | 0.0824 | -0.0621 | -0.031 | 0.0188 | 0.04 | -0.0822 | 0.0013 | 0.0429 | 0.0361 | 0.0088 | -0.0266 | -0.0048 | 0.0648 | 0.0856 |
| COc1nnc2ccc(N3CCC(c4ccc(OCCN5CCN(C)C(=O)[C@H]5C)cc4)CC3)nn12 [AZD5153] + Cc1c2c(nn1C)CSCc1cc(n(C)n1)CSc1cc(c3ccccc3c1)OCCCc1c(C(=O)O)n(C)c3c-2c(Cl)ccc13 [AZD5991] (first compound max 1 µM, 7x7, partner max 1 µM) | -0.018 | -0.016 | 0.002 | -0.0291 | -0.0479 | 0.0075 | -0.0093 | 0.01 | 0.0009 | 0.0081 | -0.0043 | -0.0309 | -0.0389 | -0.0244 | 0.0041 | -0.0355 | -0.0089 | -0.0368 | 0.0112 | -0.0112 |
| COc1nnc2ccc(N3CCC(c4ccc(OCCN5CCN(C)C(=O)[C@H]5C)cc4)CC3)nn12 [AZD5153] + Cn1cnc2c(F)c(Nc3ccc(Br)cc3Cl)c(C(=O)NOCCO)cc21 [Selumetinib] (first compound max 1 µM, 7x7, partner max 10 µM) | 0.0301 | -0.0597 | -0.0438 | -0.004 | 0.0982 | -0.0209 | -0.0232 | 0.0023 | 0.0584 | 0.0186 | -0.0192 | -0.0099 | -0.0433 | -0.0227 | 0.111 | 0.0121 | 0.0032 | -0.014 | -0.143 | -0.0539 |
| Cc1c2c(nn1C)CSCc1cc(n(C)n1)CSc1cc(c3ccccc3c1)OCCCc1c(C(=O)O)n(C)c3c-2c(Cl)ccc13 [AZD5991] + C1CN(CCC1(C(=O)N[C@@H](CCO)C2=CC=C(C=C2)Cl)N)C3=NC=NC4=C3C=CN4 [Capivasertib] (first compound max 1 µM, 7x7, partner max 3 µM) | -0.0083 | -0.0147 | 0.0182 | -0.0194 | -0.0181 | 0.0349 | -0.0006 | -0.0777 | 0.0067 | -0.0228 | -0.0239 | -0.012 | -0.0407 | 0.0327 | 0.0001 | -0.0095 | 0.0577 | -0.0238 | 0.0495 | 0.0062 |
| Cc1c2c(nn1C)CSCc1cc(n(C)n1)CSc1cc(c3ccccc3c1)OCCCc1c(C(=O)O)n(C)c3c-2c(Cl)ccc13 [AZD5991] + CCN(CCO)CCCOc1ccc2c(Nc3cc(CC(=O)Nc4cccc(F)c4)[nH]n3)ncnc2c1 [AZD2811] (first compound max 1 µM, 7x7, partner max 1 µM) | -0.0253 | -0.0407 | 0.0503 | 0.0422 | -0.0459 | 0.0225 | 0.0421 | -0.0206 | 0.0153 |  | 0.0105 | -0.0051 | 0.0088 | -0.0477 | 0.0886 | -0.0037 | 0.0345 | -0.0041 | 0.038 | 0.0074 |
